These results are taken from PubChem BioAssay (NCI).

Molecules are shown by their SMILES. Values after ≈ are worked out from the molar mass of the structure shown.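 Cells were grown in 96-well plates and exposed to each compound for 48 hours at five concentrations; endpoints were interpolated linearly between bracketing concentrations, or set to the highest concentration if not reached. GI50: concentration for 50% inhibition of growth. TGI: concentration producing complete growth inhibition.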

What all share (assay): inhibition of tumour cell growth, NCI panel, 48 h
Assay [1] relates to A549 NSCLC.
In assay [2] the test system is HL-60(TB) leukemia.
The subject of assay [3] is MDA-MB-435.
In assay [4] the test system is NCI/ADR-RES ovarian.
The subject of assay [5] is OVCAR-4 ovarian.
In assay [6] the test system is SF-268 CNS.
The test system of assay [7] is SF-539 CNS.
Assay [8] has as its system SK-OV-3 ovarian.
The test system of assay [9] is U251 CNS.
For assay [10], the system named is UACC-62 melanoma.

As to `Oc1ccc(CCc2cc(O)cc(O)c2)cc1`, the TGI in assay [1], in assay [2], in assay [3], in assay [4], in assay [5] and in assay [6] was greater than 100 µM in each case. For the same molecule, the TGI in [7], in [8], in [9] and in assay [10] was greater than 100 µM each time.
In the case of `CC(=O)c1cc2ccccc2n(O)c1=N`, the TGI in [1], in [2], in [3], in assay [4], in [5] and in assay [6] was greater than 100 µM throughout. Further, the TGI in assay [7], in [8], in assay [9] and in [10] was greater than 100 µM in each case.
On to `CC1(COS(=O)(=O)OCC2(C)COS(=O)(=O)OC2)COS(=O)(=O)OC1`, for which the TGI is greater than 100 µM in assay [1]; greater than 58 µM in assay [2]; greater than 78.4 µM in assay [3]; greater than 100 µM in assay [4]; greater than 100 µM in assay [5]; greater than 100 µM in [6]. The TGI in assay [7], in assay [8], in [9] and in [10] was greater than 100 µM in each case.
In the case of `Cc1sc2ccccc2[n+]1CCC(=O)O`, the TGI in assay [1] was greater than 100 µM; in assay [2], 29.8 µM; in assay [3] it was greater than 100 µM; in assay [4], greater than 100 µM; in assay [5], greater than 100 µM; in assay [6], greater than 100 µM. Also, the TGI in assay [7], in assay [8], in assay [9] and in assay [10] was greater than 100 µM each time.
Turning to `Cc1c(-c2ccccc2)c(C#N)c2nnc(C(N)=O)c(N)n12`, the TGI in assay [1], in [2], in assay [3], in [4], in assay [5] and in assay [6] was greater than 100 µM each time. Besides, the TGI in [7], in assay [8], in [9] and in [10] was greater than 100 µM in each case.
Regarding `O=C(CNc1ccc(Cl)cc1Cl)NC1C=Cc2ccc(S(=O)(=O)Nc3ccc(Cl)cc3Cl)cc2C1=O` (stereo not given), the TGI in [1], in assay [2], in assay [3], in assay [4], in [6] and in [7] was greater than 100 µM in each case. The TGI in assay [8], in assay [9] and in assay [10] was greater than 100 µM each time.
Consider `COc1cccc(-c2cc(=O)c3ccc(C)nc3[nH]2)c1`, for which the TGI in assay [1] is greater than 100 µM; in [2] it was 0.0532 µM; in assay [3] it was 0.0335 µM; in [4] it was greater than 100 µM; in [5] it was greater than 100 µM; in assay [6] it was greater than 89.7 µM. Besides, the TGI was 0.921 µM in assay [7], greater than 60.6 µM in [8], greater than 100 µM in assay [9] and greater than 100 µM in [10].
With `c1ccc2c(Cc3nnc4sc(SSc5nn6c(Cc7c[nH]c8ccccc78)nnc6s5)nn34)c[nH]c2c1`, the TGI in assay [1] is 88.4 µM; in assay [2] it was 75.7 µM; in [3] it was 47.7 µM; in [4] it was 44.4 µM; in [5], greater than 100 µM; in assay [6], 67.2 µM. Moreover, the TGI in assay [7] is 50.8 µM; in [8] it was greater than 100 µM; in assay [9], 58.6 µM; in [10], 33.7 µM.
With `COc1cc(/C=C2/N=C(c3ccccc3)N(C3=NNC4(C(=O)N3)c3ccccc3-c3ccccc34)NC2=O)ccc1O`, the GI50 in [1] is 15 µg/mL (≈ 27 µM); in assay [2] it was 51.2 µg/mL (≈ 91.9 µM); in assay [3] it was 26.7 µg/mL (≈ 47.9 µM); in [4] it was 45.8 µg/mL (≈ 82.3 µM); in assay [5], 27.4 µg/mL (≈ 49.2 µM); in [6], 27.5 µg/mL (≈ 49.4 µM). For the same molecule, the GI50 in assay [7] is 28.7 µg/mL (≈ 51.6 µM); in assay [8] it was 19 µg/mL (≈ 34.1 µM); in [9], 24.5 µg/mL (≈ 44 µM); in [10], 27.4 µg/mL (≈ 49.2 µM). The TGI was 15 µg/mL in [1]; greater than 150 µg/mL in assay [2]; 54.4 µg/mL in [3]; greater than 150 µg/mL in assay [4]; 62.1 µg/mL in assay [5]; 66.7 µg/mL in assay [6]. For the same molecule, the TGI was found to be 59.3 µg/mL in assay [7], 37.8 µg/mL in [8], 44.8 µg/mL in [9] and 48.3 µg/mL in assay [10].
As to `Clc1ccc(N=c2oc3ccccc3cc2-c2nc3ccccc3[nH]2)c(Cl)c1`, the TGI in [2] was greater than 100 µM; in assay [3], greater than 100 µM; in [4], greater than 100 µM; in assay [5] it was greater than 100 µM; in assay [6], 89.1 µM; in assay [8] it was greater than 100 µM. Moreover, in assay [10], the TGI is greater than 100 µM.
For `CC(=O)OCC=C(CCl)CCC(Br)C(C)(C)Br` (mixture of isomers), the TGI in assay [1], in [2], in [3], in [4], in [5] and in [6] was greater than 10 µM each time. In addition, the TGI in assay [7], in assay [8], in [9] and in assay [10] was greater than 10 µM each time.
On to `CCCCOCn1c(=O)[nH]c(=O)c2cc(Br)ccc21`, for which the TGI in [1] was greater than 100 µM; in [2] it was greater than 100 µM; in assay [3], greater than 100 µM; in assay [4] it was 40.3 µM; in assay [5] it was greater than 100 µM; in assay [7], greater than 100 µM. The TGI in assay [8], in [9] and in assay [10] was greater than 100 µM each time.
